Source: US20180071238A1, “Compositions and Methods for Traumatized Tissues Using Zinc Chelators” (Ohio University, priority 2015, published 2018)

Experiment: Zinc dissolution and precipitation in solutions of different pH (naked eye and microscope)
Type: physicochemical
Settings: FIGS. 7A-7C
Experimental: Zinc dissolution in acidic solution and zinc precipitation or crystallization in neutral or basic solution is shown in the photographs in FIGS. 7A-7C. The tests were carried out by the application of zinc into solutions.

Compound: [Zn+2] [zinc]
- solubility of zinc in solution (acidic conditions): generally soluble
- solubility of zinc in solution (neutral and basic conditions): tends to crystallize or precipitate
